Like-named read-outs stand apart in the source and are kept apart here.
Legend:
CK1α = biological target: T1, CK1α (Homo sapiens, UniProt P48729); test: CK1α NanoBit Assay (HiBiT-tagged CSNK1A1, HEK293 clonal lines); assay type: cell-based; settings: HEK293 HiBiT-CSNK1A1/LgBiT cells, 24 h incubation
T1 construct: HEK293 clonal lines with CRISPR KI HiBiT tag on CSNK1A1
Method in brief: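 HEK293 clones carrying a CRISPR knock-in HiBiT tag on CSNK1A1 and stably expressing LgBiT are treated with compound for 24 hours at 37° C, 5% CO2, then read by luminescence. Response is normalized as 100*(S−N)/(P−N) against plate negative and positive controls, and DC50 values are derived.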

CRBN/DDB1 = CRBN/DDB1 (Homo sapiens, UniProt Q96SW2); test: HTRF binding assay (displacement of Cy5-thalidomide probe from CRBN/DDB1); settings: CRBN/DDB1 2.5 nM, Cy5-Thalidomide 100 nM, 30 min; geometric mean; read-out: HTRF_Thali_Disp_DR_geo_IC50
Sequence of CRBN/DDB1 (Q96SW2 whole entry, species assumed): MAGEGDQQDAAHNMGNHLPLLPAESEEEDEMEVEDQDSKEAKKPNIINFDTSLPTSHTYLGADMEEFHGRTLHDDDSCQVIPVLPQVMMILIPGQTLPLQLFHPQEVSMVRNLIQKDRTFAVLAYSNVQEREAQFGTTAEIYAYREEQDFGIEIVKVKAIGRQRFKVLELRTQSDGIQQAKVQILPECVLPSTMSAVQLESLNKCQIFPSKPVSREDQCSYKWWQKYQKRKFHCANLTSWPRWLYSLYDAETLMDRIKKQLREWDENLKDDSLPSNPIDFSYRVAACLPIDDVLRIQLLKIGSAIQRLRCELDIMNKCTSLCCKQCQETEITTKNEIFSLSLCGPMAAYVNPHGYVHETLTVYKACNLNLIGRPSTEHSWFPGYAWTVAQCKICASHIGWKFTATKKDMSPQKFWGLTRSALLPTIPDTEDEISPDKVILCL
Sequence of CRBN/DDB1 (Q16531 whole entry partner, species assumed): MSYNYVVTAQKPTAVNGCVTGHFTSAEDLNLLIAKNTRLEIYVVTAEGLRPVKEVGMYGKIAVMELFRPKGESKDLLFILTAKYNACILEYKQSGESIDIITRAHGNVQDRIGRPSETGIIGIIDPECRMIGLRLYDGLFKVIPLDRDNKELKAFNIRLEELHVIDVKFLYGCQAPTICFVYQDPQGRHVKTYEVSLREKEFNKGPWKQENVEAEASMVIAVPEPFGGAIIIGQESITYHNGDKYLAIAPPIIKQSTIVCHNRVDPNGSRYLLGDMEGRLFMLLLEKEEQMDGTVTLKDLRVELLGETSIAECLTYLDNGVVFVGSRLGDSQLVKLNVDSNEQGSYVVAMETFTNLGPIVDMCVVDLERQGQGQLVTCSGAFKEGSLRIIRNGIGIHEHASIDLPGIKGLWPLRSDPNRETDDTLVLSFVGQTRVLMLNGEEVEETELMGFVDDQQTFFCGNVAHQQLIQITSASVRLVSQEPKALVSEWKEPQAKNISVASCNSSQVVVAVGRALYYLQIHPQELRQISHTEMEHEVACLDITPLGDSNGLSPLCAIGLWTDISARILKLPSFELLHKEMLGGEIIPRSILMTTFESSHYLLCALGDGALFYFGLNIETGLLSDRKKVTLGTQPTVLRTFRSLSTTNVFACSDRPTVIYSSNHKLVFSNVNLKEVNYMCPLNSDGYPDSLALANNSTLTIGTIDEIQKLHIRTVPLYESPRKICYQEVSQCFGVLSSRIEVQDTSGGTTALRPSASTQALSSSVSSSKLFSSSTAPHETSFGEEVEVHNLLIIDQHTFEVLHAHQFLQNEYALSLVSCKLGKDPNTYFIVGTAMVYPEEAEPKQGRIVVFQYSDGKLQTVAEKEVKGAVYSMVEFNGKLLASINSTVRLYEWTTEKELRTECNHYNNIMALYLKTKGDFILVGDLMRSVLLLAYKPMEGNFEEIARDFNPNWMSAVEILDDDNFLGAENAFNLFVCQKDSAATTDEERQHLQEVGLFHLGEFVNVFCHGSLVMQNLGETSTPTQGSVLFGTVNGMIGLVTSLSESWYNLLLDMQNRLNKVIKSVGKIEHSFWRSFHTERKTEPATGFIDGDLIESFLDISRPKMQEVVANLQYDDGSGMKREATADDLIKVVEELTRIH
Method in brief: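 HTRF displacement of Cy5-thalidomide (100 nM) from His-tagged CRBN/DDB1 (2.5 nM) with anti-His Tb cryptate in 20 mM HEPES, 20 mM NaCl, 0.2 mM TCEP, 0.2 mM EDTA, 0.005% Tween20. 10-point 1:3 series, 30 min ambient. 665/620 nm ratio fitted 4-parameter for IC50; Ki by Cheng-Prusoff from geometric-mean IC50.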

SKCO1 cell line = test: Growth inhibition, CyQUANT Direct Cell Proliferation Assay, SKCO1; assay type: cell-based; settings: Homo sapiens
Method: (§1) SKCO1, LS180, and LS174T cell lines were purchased from ATCC. CW2 cell line was purchased from Riken. GP2D cell line was purchased from Sigma/ECACC. All cell lines were cultured in manufacturer's recommended media at 37° C., 5% CO2. Briefly, cells were suspended in 200 μL of media and seeded at 300 to 1,800 cells per well in tissue culture treated 96-well plates with black walls and clear bottom. Plates were incubated overnight and initial (To) read was performed the following day using CyQUANT Direct Cell Proliferation Assay Kit (Thermo Fisher Scientific) according to manufacturer's protocol. All compounds were solubilized in DMSO and prepared at 3-fold serial dilution, using 9 points starting at 30 μM as highest concentration, administered to cells and incubated for 120 to 168 hours, at which point CyQUANT assay measurement was performed using Acumen Cellista instrument (Ex/Em 480/520 nm). Media-only wells were used as blank, and 0.3% DMSO was used as DMSO-treated cell control. Growth inhibition (percent response) was calculated using the following formula in Excel: “=if ([Compound treated Day N]>[Untreated Day 0, AVG], ([Compound treated Day N]−[Untreated Day 0, AVG])/([Untreated Day N]−[Untreated Day 0, AVG])*100, ([Compound Treated Day N]−[Untreated Day 0, AVG])/([Untreated Day 0, AVG])*100)”. GI50 is the response corresponding to the 50% of untreated control.
(§2) GI50 data are reported in Tables 4a, 4b, 4c, 4d, and 4e for compounds in Table 1. In Tables 4a, 4b, 4c, 4d, and 4e below, According to the code, A represents a GI50 value of ≤0.1 μM, B represents a GI50 value>0.1 μM and ≤1 μM, C represents an GI50 value>1 μM.

CW2 cell line = test: Growth inhibition, CyQUANT Direct Cell Proliferation Assay, CW2; assay type: cell-based; settings: Homo sapiens
Method: as §1, §2

GP2D cell line = test: Growth inhibition, CyQUANT Direct Cell Proliferation Assay, GP2D; assay type: cell-based
Method: as §1, §2

LS180 cell line = test: Growth inhibition, CyQUANT Direct Cell Proliferation Assay, LS180; assay type: cell-based; settings: Homo sapiens
Method: as §1, §2

LS174T cell line = test: Growth inhibition, CyQUANT Direct Cell Proliferation Assay, LS174T; assay type: cell-based; settings: Homo sapiens
Method: as §1, §2

[1] = SK-CO-1, read-out: SKCO1 GI50 (μM)
[2] = LS180, read-out: LS180 GI50 (μM)
[3] = SK-CO-1, SKCO1, 120 to 168 hours, read-out: SKCO1 GI50
[4] = CW-2, CW2, 120 to 168 hours, read-out: CW2 GI50
[5] = GP2D, 120 to 168 hours, read-out: GP2D GI50
[6] = LS180, 120 to 168 hours, read-out: LS180 GI50
[7] = 120 to 168 hours, read-out: LS174T GI50

T1 sequence (P48729 whole entry): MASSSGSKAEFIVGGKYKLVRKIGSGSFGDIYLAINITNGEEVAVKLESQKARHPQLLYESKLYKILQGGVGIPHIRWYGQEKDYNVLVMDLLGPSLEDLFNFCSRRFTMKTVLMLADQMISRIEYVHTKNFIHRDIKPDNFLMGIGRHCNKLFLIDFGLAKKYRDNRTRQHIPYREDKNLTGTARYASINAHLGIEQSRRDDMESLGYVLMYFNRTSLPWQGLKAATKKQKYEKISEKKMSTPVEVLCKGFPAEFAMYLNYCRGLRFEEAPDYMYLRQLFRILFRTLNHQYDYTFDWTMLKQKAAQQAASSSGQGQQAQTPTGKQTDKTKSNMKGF
T1 sequence (Q96SW2 whole entry, further chain): as the sequence (Q96SW2 whole entry, species assumed) above
T1 sequence (Q16531 2-1140 partner limits assumed): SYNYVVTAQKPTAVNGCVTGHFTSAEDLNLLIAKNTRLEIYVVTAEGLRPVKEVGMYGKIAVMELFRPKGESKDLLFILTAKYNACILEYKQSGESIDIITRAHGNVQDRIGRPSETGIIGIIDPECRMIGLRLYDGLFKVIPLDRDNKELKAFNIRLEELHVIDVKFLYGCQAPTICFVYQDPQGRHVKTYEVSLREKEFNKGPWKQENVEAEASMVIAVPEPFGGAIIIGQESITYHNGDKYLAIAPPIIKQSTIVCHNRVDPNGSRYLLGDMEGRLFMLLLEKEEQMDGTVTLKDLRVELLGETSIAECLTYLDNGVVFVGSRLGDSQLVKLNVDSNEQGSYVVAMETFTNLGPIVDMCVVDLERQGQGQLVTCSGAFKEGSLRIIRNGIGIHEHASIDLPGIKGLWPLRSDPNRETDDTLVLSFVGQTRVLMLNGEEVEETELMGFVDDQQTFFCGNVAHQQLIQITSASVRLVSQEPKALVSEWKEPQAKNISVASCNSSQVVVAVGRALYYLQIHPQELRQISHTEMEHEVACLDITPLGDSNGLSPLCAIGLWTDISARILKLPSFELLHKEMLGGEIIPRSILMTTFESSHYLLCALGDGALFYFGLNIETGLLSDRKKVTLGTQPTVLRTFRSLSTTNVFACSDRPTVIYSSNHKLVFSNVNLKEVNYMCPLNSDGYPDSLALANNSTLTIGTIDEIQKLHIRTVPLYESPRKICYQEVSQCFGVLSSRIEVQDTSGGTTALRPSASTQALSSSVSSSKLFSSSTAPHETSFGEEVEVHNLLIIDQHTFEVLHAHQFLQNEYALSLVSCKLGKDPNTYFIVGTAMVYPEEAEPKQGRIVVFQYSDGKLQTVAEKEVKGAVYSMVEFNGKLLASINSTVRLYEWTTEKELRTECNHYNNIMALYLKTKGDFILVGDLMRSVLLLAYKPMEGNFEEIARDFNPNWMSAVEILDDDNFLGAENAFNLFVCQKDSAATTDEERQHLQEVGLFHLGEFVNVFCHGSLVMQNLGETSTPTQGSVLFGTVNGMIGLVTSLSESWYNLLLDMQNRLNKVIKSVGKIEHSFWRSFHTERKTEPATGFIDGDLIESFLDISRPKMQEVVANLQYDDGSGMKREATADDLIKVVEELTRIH

Structure (SMILES)	GI50 (SKCO1 cell line; [3]) [µM]	DC50 (CK1α) [µM]	IC50 (CRBN/DDB1) [nM]	GI50 (SKCO1 cell line; [1]) [µM]	GI50 (CW2 cell line; CW-2, read-out: CW2 GI50 (μM)) [µM]	GI50 (GP2D cell line; GP2d, read-out: GP2D GI50 (μM)) [µM]	GI50 (LS180 cell line; [2]) [µM]	GI50 (LS174T cell line; read-out: LS174T GI50 (μM)) [µM]	GI50 (CW2 cell line; [4]) [µM]	GI50 (GP2D cell line; [5]) [µM]	GI50 (LS180 cell line; [6]) [µM]	GI50 (LS174T cell line; [7]) [µM]
O=C1CCC(N2Cc3cc(NC(=O)N4CCc5ccc(Cl)cc54)ccc3C2=O)C(=O)N1 (stereo not drawn) [Compound 137, 6-chloro-N-(2-(2,6-dioxopiperidin-3-yl)-1-oxoisoindolin-5-yl)indoline-1-carboxamide]		< 0.1	100 to 1000	0.1 to 1	< 0.1	0.1 to 1	0.1 to 1	0.1 to 1				
N#Cc1ccc2c(c1)CCN2C(=O)Nc1ccc2c(c1)CN(C1CCC(=O)NC1=O)C2=O (stereo not drawn) [Compound 142, 5-cyano-N-(2-(2,6-dioxopiperidin-3-yl)-1-oxoisoindolin-5-yl)indoline-1-carboxamide]		< 0.1	100 to 1000	0.1 to 1	> 1	0.1 to 1	0.1 to 1	0.1 to 1				
N#Cc1cccc2c1CCN2C(=O)Nc1ccc2c(c1)CN(C1CCC(=O)NC1=O)C2=O (stereo not drawn) [Compound 148, 4-cyano-N-(2-(2,6-dioxopiperidin-3-yl)-1-oxoisoindolin-5-yl)indoline-1-carboxamide]	0.1 to 1	< 0.1	< 100						0.1 to 1	0.1 to 1	0.1 to 1	0.1 to 1
O=C1CCC(N2Cc3cc(NC(=O)N4CCc5c(C6CC6)cccc54)ccc3C2=O)C(=O)N1 (stereo not drawn) [Compound 164, 4-cyclopropyl-N-(2-(2,6-dioxopiperidin-3-yl)-1-oxoisoindolin-5-yl)indoline-1-carboxamide]	< 0.1	< 0.1	100 to 1000						< 0.1	< 0.1	0.1 to 1	< 0.1
O=C1CCC(N2Cc3cc(NC(=O)N4CCc5cc(F)ccc54)ccc3C2=O)C(=O)N1 (stereo not drawn) [Compound 178, N-(2-(2,6-dioxopiperidin-3-yl)-1-oxoisoindolin-5-yl)-5-fluoroindoline-1-carboxamide]		< 0.1	100 to 1000	0.1 to 1	0.1 to 1	0.1 to 1	0.1 to 1	0.1 to 1				
O=C1CCC(N2Cc3cc(NC(=O)N4CCc5cc(C(F)(F)F)ccc54)ccc3C2=O)C(=O)N1 (stereo not drawn) [Compound 185, N-(2-(2,6-dioxopiperidin-3-yl)-1-oxoisoindolin-5-yl)-5-(trifluoromethyl)indoline-1-carboxamide]		< 0.1	100 to 1000	0.1 to 1	0.1 to 1	0.1 to 1	0.1 to 1	0.1 to 1				
O=C1CCC(N2Cc3cc(NC(=O)N4CCc5ccc(F)cc54)ccc3C2=O)C(=O)N1 (stereo not drawn) [Compound 186, N-(2-(2,6-dioxopiperidin-3-yl)-1-oxoisoindolin-5-yl)-6-fluoroindoline-1-carboxamide]		< 0.1	100 to 1000	< 0.1	< 0.1	< 0.1	< 0.1	< 0.1				
O=C1CCC(N2Cc3cc(NC(=O)N4CC5(CCOCC5)c5ccccc54)ccc3C2=O)C(=O)N1 (stereo not drawn) [Compound 189]	< 0.1	< 0.1	100 to 1000						< 0.1	< 0.1	< 0.1	< 0.1
Cc1ccc2c(c1)N(C(=O)Nc1ccc3c(c1)CN(C1CCC(=O)NC1=O)C3=O)CC2 (stereo not drawn) [Compound 190, N-(2-(2,6-dioxopiperidin-3-yl)-1-oxoisoindolin-5-yl)-6-methylindoline-1-carboxamide]		< 0.1	100 to 1000	0.1 to 1	0.1 to 1	0.1 to 1	0.1 to 1	0.1 to 1				
CC1Cc2ccccc2CN1C(=O)Nc1ccc2c(c1)CN(C1CCC(=O)NC1=O)C2=O (stereo not drawn) [Compound 205, N-(2-(2,6-dioxopiperidin-3-yl)-1-oxoisoindolin-5-yl)-3-methyl-3,4-dihydroisoquinoline-2(1H)-carboxamide]		< 0.1	100 to 1000	< 0.1	< 0.1	< 0.1	0.1 to 1	0.1 to 1				
O=C1CCC(N2Cc3cc(NC(=O)N4CC5(CC5)c5ccccc54)ccc3C2=O)C(=O)N1 (stereo not drawn) [Compound 210, N-(2-(2,6-dioxopiperidin-3-yl)-1-oxoisoindolin-5-yl)spiro[cyclopropane-1,3′-indoline]-1′-carboxamide]		< 0.1	100 to 1000	< 0.1	< 0.1	< 0.1	0.1 to 1	< 0.1				
O=C1CCC(N2Cc3cc(NC(=O)N4CCc5cc(C(F)(F)F)ncc54)ccc3C2=O)C(=O)N1 (stereo not drawn) [Compound 287, N-(2-(2,6-dioxopiperidin-3-yl)-1-oxoisoindolin-5-yl)-5-(trifluoromethyl)-2,3-dihydro-1H-pyrrolo[2,3-c]pyridine-1-carboxamide]		< 0.1	100 to 1000	< 0.1	< 0.1	< 0.1	0.1 to 1	< 0.1				

Continued, in another order:

GI50 (SKCO1 cell line; [3]) [µM]	Structure (SMILES)	DC50 (CK1α) [µM]	IC50 (CRBN/DDB1) [nM]	GI50 (SKCO1 cell line; [1]) [µM]	GI50 (CW2 cell line; CW-2, read-out: CW2 GI50 (μM)) [µM]	GI50 (GP2D cell line; GP2d, read-out: GP2D GI50 (μM)) [µM]	GI50 (LS180 cell line; [2]) [µM]	GI50 (LS174T cell line; read-out: LS174T GI50 (μM)) [µM]	GI50 (CW2 cell line; [4]) [µM]	GI50 (GP2D cell line; [5]) [µM]	GI50 (LS180 cell line; [6]) [µM]	GI50 (LS174T cell line; [7]) [µM]
< 0.1	Cc1cccc2c1CCN2C(=O)Nc1ccc2c(c1)CN(C1CCC(=O)NC1=O)C2=O (stereo not drawn) [Compound 198, N-(2-(2,6-dioxopiperidin-3-yl)-1-oxoisoindolin-5-yl)-4-methylindoline-1-carboxamide]	< 0.1	100 to 1000						< 0.1	< 0.1	0.1 to 1	0.1 to 1
< 0.1	O=C1CCC(N2Cc3cc(NC(=O)N4CCc5c(F)cccc54)ccc3C2=O)C(=O)N1 (stereo not drawn) [Compound 201, N-(2-(2,6-dioxopiperidin-3-yl)-1-oxoisoindolin-5-yl)-4-fluoroindoline-1-carboxamide]	< 0.1	> 1000						< 0.1	< 0.1	0.1 to 1	< 0.1
< 0.1	Cc1ccc2c(c1)CCN2C(=O)Nc1ccc2c(c1)CN(C1CCC(=O)NC1=O)C2=O (stereo not drawn) [Compound 214, N-(2-(2,6-dioxopiperidin-3-yl)-1-oxoisoindolin-5-yl)-5-methylindoline-1-carboxamide]	< 0.1	100 to 1000						< 0.1	< 0.1	0.1 to 1	0.1 to 1
< 0.1	O=C1CCC(N2Cc3cc(NC(=O)N4C[C@H](C5CC5)C[C@@H]4C4CC4)ccc3C2=O)C(=O)N1 (stereo partly drawn) [Compound 256]	< 0.1	100 to 1000						< 0.1	0.1 to 1	0.1 to 1	< 0.1
< 0.1	C[C@H]1CN(C(=O)Nc2ccc3c(c2)CN(C2CCC(=O)NC2=O)C3=O)c2ccccc21 (stereo partly drawn) [Compound 284]	< 0.1	100 to 1000						< 0.1	0.1 to 1	0.1 to 1	< 0.1
< 0.1	COC[C@H]1CN(C(=O)Nc2ccc3c(c2)CN(C2CCC(=O)NC2=O)C3=O)c2cccc(C(F)(F)F)c21 (stereo partly drawn) [Compound 329, (3R)—N-(2-(2,6-dioxopiperidin-3-yl)-1-oxoisoindolin-5-yl)-3-(methoxymethyl)-4-(trifluoromethyl)indoline-1-carboxamide]	< 0.1	100 to 1000						0.1 to 1	0.1 to 1	0.1 to 1	0.1 to 1
